Test results published in PubChem BioAssay (NCI).
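In this assay, cells in 96-well plates receive the compound at five concentrations for 48 hours. Endpoints are linearly interpolated between the surrounding concentrations. The concentration for full growth arrest is given as TGI.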

What was measured:
Test in all cases: NCI-60 cell line screen, 48 h
CAKI-1 renal = system: CAKI-1 renal
MDA-MB-435 = system: MDA-MB-435
IGROV1 ovarian = system: IGROV1 ovarian
HT29 colon = system: HT29 colon
NCI-H460 lung = system: NCI-H460 lung
T-47D breast = system: T-47D breast
CCRF-CEM leukemia = system: CCRF-CEM leukemia
M14 melanoma = system: M14 melanoma
DU-145 prostate = system: DU-145 prostate
RPMI-8226 leukemia = system: RPMI-8226 leukemia
HCT-15 colon = system: HCT-15 colon
SF-295 CNS = system: SF-295 CNS
MDA-N = system: MDA-N
PC-3 prostate = system: PC-3 prostate
LOX IMVI melanoma = system: LOX IMVI melanoma
TK-10 renal = system: TK-10 renal
MDA-MB-231 breast = system: MDA-MB-231 breast
HCT-116 colon = system: HCT-116 colon
MALME-3M melanoma = system: MALME-3M melanoma
K-562 leukemia = system: K-562 leukemia
HCC-2998 colon = system: HCC-2998 colon
UACC-62 melanoma = system: UACC-62 melanoma
KM12 colon = system: KM12 colon
SK-MEL-5 melanoma = system: SK-MEL-5 melanoma
SW-620 colon = system: SW-620 colon
EKVX NSCLC = system: EKVX NSCLC
SF-268 CNS = system: SF-268 CNS
A549 NSCLC = system: A549 NSCLC
ACHN renal = system: ACHN renal
SF-539 CNS = system: SF-539 CNS
SK-MEL-28 melanoma = system: SK-MEL-28 melanoma
BT-549 breast = system: BT-549 breast
SK-OV-3 ovarian = system: SK-OV-3 ovarian
OVCAR-8 ovarian = system: OVCAR-8 ovarian
HOP-62 NSCLC = system: HOP-62 NSCLC
HS 578T breast = system: HS 578T breast
A498 renal = system: A498 renal
HL-60(TB) leukemia = system: HL-60(TB) leukemia
SNB-75 CNS = system: SNB-75 CNS
SR leukemia = system: SR leukemia
NCI-H522 lung = system: NCI-H522 lung
MOLT-4 leukemia = system: MOLT-4 leukemia
786-0 renal = system: 786-0 renal
NCI-H23 lung = system: NCI-H23 lung
COLO 205 colon = system: COLO 205 colon
MCF7 breast = system: MCF7 breast
SN12C renal = system: SN12C renal
UACC-257 melanoma = system: UACC-257 melanoma
UO-31 renal = system: UO-31 renal
RXF 393 renal = system: RXF 393 renal
U251 CNS = system: U251 CNS
OVCAR-5 ovarian = system: OVCAR-5 ovarian
NCI/ADR-RES ovarian = system: NCI/ADR-RES ovarian
NCI-H226 lung = system: NCI-H226 lung
HOP-92 NSCLC = system: HOP-92 NSCLC
OVCAR-3 ovarian = system: OVCAR-3 ovarian
SNB-19 CNS = system: SNB-19 CNS
SK-MEL-2 melanoma = system: SK-MEL-2 melanoma

Measured: TGI

COc1ccc(C(=O)/C=C/c2ccc(OCCSCCCCCCCCCCSCCOc3ccc(/C=C/C(=O)c4ccc(OC)c(OC)c4)cc3)cc2)cc1OC
not listed: UO-31 renal | RXF 393 renal | U251 CNS | OVCAR-5 ovarian | NCI/ADR-RES ovarian | NCI-H226 lung | HOP-92 NSCLC | OVCAR-3 ovarian | SNB-19 CNS | SK-MEL-2 melanoma
> 100 µM: all other assays above

NCOC(=O)Cc1ccc(Br)cc1
not listed: CAKI-1 renal | MDA-MB-435 | HCC-2998 colon | KM12 colon
> 100 µM: all other assays above
